From patent publication US11547725B2, “Anti-cancer T cells and their preparation using coenzyme A” (UNIVERSITY HEALTH NETWORK, priority 2017, dated 2023)

Experiments:
CD8+ T cells [1] = assay: Tc subset polarization of CD8+ T cells, intracellular cytokine staining by flow cytometry; format: cell-based, mouse; conditions: for Tc22 polarization: CD8+ T cells activated three days in Tc22 conditions, compound vs vehicle (oligomycin 100 nm, etomoxir 40 μm, pantothenate 8 mM, CoA 2.5-3.5 mM)
CD8+ T cells [2] = assay: Cytokines quantified in supernatant (cytometric bead array or ELISA); format: cell-based, mouse; conditions: three day culture, CD8+ T cells activated with vehicle or CoA
Experimental: (§1) Antibodies used for flow cytometry were purchased from eBioscience, Biolegend and BD Pharmingen. Antibody clones used were: CD4 (RM-45), CD8 (53-6.7), IL-22 (IL22JOP and Poly5164), IL-17 (eBio17B7), IFN-γ (XMG1.2) and TNF-α (MP6-XT22). Antibodies used for western blotting were HIF-1a (Caymen Chem-10006421) and β-actin (Sigma—A2066). For intracellular cytokine staining, cells were re-stimulated for 5-6 hours with Cell-Stimulation Cocktail (eBioscience) in the presence of Brefeldin A (eBioscience), followed by staining using Cytofix/Cytoperm (BD Pharmingen). Flow cytometry data was acquired on a FACSCanto II (BD) and analyzed using FlowJo software (Tree Star). Cytokines were quantified in the supernatant using LEGENDPLEX cytometric bead array (Biolegend) or by ELISA (eBioscience)
Oligomycin, Etomoxir, Diethyl succinate and Calcium-D Pantothenate were purchased from Sigma, and Coenzyme A Trilithium Salt (CoA) and HIF-inhibitor (CAS 934593-90-5) were purchased from EMD Millipore. Oligomycin (100 nm) was added to CD8+ T cells 24 hours after the start of activation, while Etomoxir (40 μm), Pantothenate (8 mM), Diethyl Succinate (14 mM) and HIF-Inhibitor (40 μM) were added at the start of activation. CoA was added at the start of activation unless otherwise indicated at a concentration of 2.5-3.5 mM depending on the lot.

CD8+ T cells [3] = assay: RNA sequencing of CD8+ T cells activated with CoA or vehicle; format: cell-based, mouse; conditions: RNA seq
Experimental: RNA was extracted from CD8+ T cells activated for three days in the presence of CoA or Vehicle using Qiagen RNEasy kit. Libraries were prepared using TruSeq Stranded Total RNA kit. Two hundred nanograms from RNA samples were ribosomal RNA depleted using Ribo-zero Gold rRNA beads, following purification the RNA was fragmented. The cleaved RNA fragments were copied into first strand cDNA using reverse transcriptase and random primers. This is followed by second strand cDNA synthesis using RNase H and DNA Polymerase I. A single “A” based were added and adapter ligated followed by purification and enrichment with PCR to create cDNA libraries. Final cDNA libraries were size validated using Agilent Bioanalyzer and concentration validated by qPCR. All libraries were normalized to 10 nM and pooled together. 10 pM of pooled libraries were loaded onto Illumina cBot for cluster generation. Clustered flow cell was then sequenced Pair-end 100 cycles V3 using Illumina HighSeq 2000 to achieve ˜30 million reads per sample.
The Tophat (2.0.8b) software suite with Bowtie (2.0.5) was used to align reads to the Mus musculus mm10 mouse genome (igenome). […] The cufflinks (2.2.1) software suite was used to quantify alignments. Cuffquant was used to quantify individual sample alignments and Cuffnorm was used to normalize quantified data for each group of biological replicates. […]

CD8+ T cells [4] = assay: Seahorse OCR / ECAR; format: cell-based, mouse
Experimental: (§2) Seahorse was performed as previously described (11). ATP quantification was performed on day 3 polarized T cells using a commercial kit (Sigma) according to the recommended protocol. For SITA, CD8+ T cells activated for three days in the presence of vehicle or CoA were harvested, washed and incubated for 2.5 hours with U-13C6-glucose (Cambridge Isotopes). Cells were then washed and pellet was frozen in methanol. The cells were thawed on ice and lysed by sonication at 4° C. using a Diagenode Bioruptor (30s. on, 30s off, 5 mins). The resulting mixtures were spun down (15 mins 13000 rpm 4° C.) to remove the cellular debris, the resulting supernatants were transferred to clean microfuge tubes and the solvent was removed using a speed-vac at room temperature. The resulting pellets were stored at −70° C. until derivitization. The pellets were solubilized in 30 μL of pyridine containing methoxyamine(10 mg/mL; Sigma) and each sample was spiked with 1 μL of myristic acid-D27 (750 ng/mL in pyridine; Cambridge Isotopes). The samples were vortexed, sonicated, transferred to autoinjection vials and incubated at room temperature for 30 mins. Subsequent to this, 70 uL of N-tert-Butyldimethylsilyl-N-methyltrifluoroacetamide (MTBSTFA; Sigma) was added and the samples were incubated at 70° C. for 30 mins. GC/MS analysis was performed using an Agilent 5975C GC/MS equipped with a DB-5MS+DG capillary column. 1 uL of sample was injected onto the GC column in splitless mode with an inlet temperature of 280° C. and the data was collected by electron impact set at 70 eV. Helium was used as the carrier gas with a flow rate of 1.55 mL/min. The quadrupole was set at 150° C. and the GC/MS interface at 285° C. The oven program for all metabolite analyses started at 60° C. held for 1 min, then increasing at a rate of 10° C./min until 320° C. Bake-out was at 320° C. for 10 mins and the sample data were acquired in scan mode (1-600 m/z).
To further characterize these observed differences in each Tc subset, we analyzed their respective utilization of glycolysis versus OXPHOS using the Seahorse Bioanalyzer. This method allows the concurrent measurement of the oxygen consumption rate (OCR—indicative of OXPHOS) and the extracellular acidification rate (ECAR—indicative of glycolysis) in real-time. […] Consistent with the increased ATP yield of oxidative metabolism compared to glycolysis, Tc22s had the highest amounts of intracellular ATP (FIG. 1F). We also observed metabolites involved in the TCA cycle and OXPHOS, particularly succinate, to be increased in Tc22s (FIG. 6).

CD8+ T cells [5] = assay: ATP quantification (commercial kit); format: cell-based, mouse; conditions: CD8+ T cells activated with CoA vs vehicle
Experimental: as §2, with “1 uL of sample was injected onto the GC column in splitless mode with an inlet temperature of 280° C. and the data was collected by electron impact set at 70 eV. Helium was used as the carrier gas with a flow rate of 1.55 mL/min. The quadrupole was set at 150° C. and the GC/MS interface at 285° C. The oven program for all metabolite analyses started at 60° C. held for 1 min, then increasing at a rate of 10° C./min until 320° C. Bake-out was at 320° C. for 10 mins and the sample data were acquired in scan mode (1-600 m/z).” left out

CD8+ T cells [6] = assay: Stable isotope tracer analysis (SITA) with 13C-glucose, GC/MS; format: cell-based, mouse; conditions: three days CoA or vehicle
Experimental: as §2, with “GC/MS analysis was performed using an Agilent 5975C GC/MS equipped with a DB-5MS+DG capillary column. 1 uL of sample was injected onto the GC column in splitless mode with an inlet temperature of 280° C. and the data was collected by electron impact set at 70 eV. Helium was used as the carrier gas with a flow rate of 1.55 mL/min. The quadrupole was set at 150° C. and the GC/MS interface at 285° C. The oven program for all metabolite analyses started at 60° C. held for 1 min, then increasing at a rate of 10° C./min until 320° C. Bake-out was at 320° C. for 10 mins and the sample data were acquired in scan mode (1-600 m/z).” left out
The data was analyzed using Agilent MSD-Chemstation interfaced to the NIST11 library. […]

HIF-1α = assay: Western blotting for HIF-1a; format: cell-based, mouse; conditions: CD8+ T cells activated with vehicle or CoA
Experimental: as §1

CD4+ T cells [7] = assay: Th22 polarization of SMARTA CD4+ T cells, cytokine expression; format: cell-based, mouse; conditions: CoA vs vehicle, non-polarizing or Th22 conditions
CD4+ T cells [8] = assay: OCR, OCR:ECAR ratio and ATP production in CD4+ T cells; format: cell-based, mouse; conditions: CD4+ T cells activated with vehicle or CoA
Experimental: as §2, with “1 uL of sample was injected onto the GC column in splitless mode with an inlet temperature of 280° C. and the data was collected by electron impact set at 70 eV. Helium was used as the carrier gas with a flow rate of 1.55 mL/min. The quadrupole was set at 150° C. and the GC/MS interface at 285° C. The oven program for all metabolite analyses started at 60° C. held for 1 min, then increasing at a rate of 10° C./min until 320° C. Bake-out was at 320° C. for 10 mins and the sample data were acquired in scan mode (1-600 m/z).” left out

[9] = test system: dextran sulfate sodium (DSS) colitis; assay: DSS colitis model; format: in vivo, mouse; conditions: 2.5% DSS in water 5 days; oral CoA 0.5 mg/mL in drinking water vs vehicle
Experimental: For DSS-colitis experiments, 8-12 week old female C57BL/6 mice were randomized into different cohorts and colitis was induced using 2.5% DSS (MP Bio) added to the drinking water of mice for 5 consecutive days. CoA (0.5 mg/mL) or vehicle control was added to the drinking water on day 0. On day 5, mice were switched to fresh water without any DSS added, supplemented with either CoA (0.5 mg/mL) or vehicle control.

human CD8+ cells = assay: Human T cell Tc22 polarization, intracellular cytokines by flow cytometry; format: cell-based; conditions: human naive T cells, Tc22 conditions, pantothenate 8 mM on day 0, five days
Experimental: Peripheral blood mononuclear cells were obtained from healthy donors following institutional review board approval. Written informed consent was obtained from all donors who provided the samples. PBMCs were magnetically sorted for naïve T cells (Miltenyi Biotec) and seeded into a 96-well plate previously coated with 5 μg/mL anti-CD3 (eBioscience, clone OKT3). To induce Tc22 polarization, the following antibodies and cytokines were added to culture: 1 μg/mL anti-CD28 (eBioscience, clone CD28.2), 5 μg/mL anti-IFNγ (BioLegend, clone B27), 5 μg/mL anti-IL-4 (BioLegend, clone 8D4-8), 5 μg/mL anti-TGFβ (eBioscience, clone 1D11.16.8), 20 ng/mL IL-6, 10 ng/mL IL-21, 10 ng/mL IL-23, 40 ng/mL TNF-α (All from BioLegend) and 2 ng/mL FICZ. Pantothenate (8 mM) or vehicle control was also added on day 0. Five days later, cells were stimulated with PMA/ionomycin+Brefeldin for 5-6 hours. Cells were then stained and analyzed for intracellular cytokines by flow cytometry.

[10] = re-stimulated 48 hours with anti-CD3 with vehicle or CoA
[11] = CD8+ T cells activated with CoA vs vehicle

CC(C)(COP(=O)(O)OP(=O)(O)OC[C@H]1O[C@@H](n2cnc3c(N)ncnc32)[C@H](O)[C@@H]1OP(=O)(O)O)[C@@H](O)C(=O)NCCC(=O)NCCS.[Li].[Li].[Li] [CoA, Coenzyme A Trilithium Salt]
Tc22 polarization (CD8+ T cells [1]): greatly enhanced polarization
Cytokine expression in non-polarizing conditions (CD8+ T cells [1]; CD8+ T cells activated with CoA alone, absence of polarizing cytokines): skewed primarily towards an IL-22^+ IL-17^− IFNγ^− population
Tc22 induction in presence of IL-6 neutralizing antibody (CD8+ T cells [1]; CoA with anti IL-6 (10 ug/mL), three days): retained the ability to induce Tc22s
Tc22 polarization in APC-free system (CD8+ T cells [1]; platebound anti-CD3 and soluble anti CD28, three days, CoA added 24 hours after start, non-polarizing or Tc22 conditions): induced and enhanced Tc22 polarization
IL-22 production in previously activated CD8+ T cells (CD8+ T cells [1]; [10]): able to induce IL-22 production
Cytokine profile in supernatants (CD8+ T cells [2]): primarily up-regulate IL-22
Expression of genes up-regulated by Tc22 polarizing cytokines (Tc22 signature) (CD8+ T cells [3]; CoA alone vs vehicle, three days): strongly up-regulated
Gene expression altered by treatment (GO term analysis) (CD8+ T cells [3]; CoA vs vehicle): primarily altered the expression of immune system genes and not metabolic genes
Basal ECAR (CD8+ T cells [4]; [11]): lower basal ECAR
Basal OCR (CD8+ T cells [4]; [11]): higher basal OCR
OCR:ECAR ratio (CD8+ T cells [4]; [11]): high OCR:ECAR ratio
Oxidative phenotype (OCR, ECAR, OCR:ECAR, ATP) in previously activated CD8+ T cells (CD8+ T cells [4]; [10]): promote an oxidative phenotype
Intracellular levels of ATP (CD8+ T cells [5]): increased intracellular levels of ATP
Total intracellular pools of TCA intermediates (CD8+ T cells [6]): increased total intracellular pools of many of the TCA intermediates
Incorporation of 13C label into TCA metabolites (CD8+ T cells [6]; then 2.5 hours 13C glucose): enhanced incorporation of the ^13C label into TCA metabolites
Levels of HIF-1α (HIF-1α): substantially increased levels of HIF-1α
Th22 polarization (CD4+ T cells [7]): induced and enhanced Th22 polarization
ATP production in CD4+ T cells (CD4+ T cells [8]): enhanced ATP production
Metabolic shift (OCR, OCR:ECAR ratio) in CD4+ T cells (CD4+ T cells [8]): metabolic shift towards OXPHOS
Disease severity (% weight loss) [9]: decrease in disease severity

CCOC(=O)[C@@]1(CCCCCCOc2ccc(Cl)cc2)CO1 [etomoxir, Etomoxir]
Tc22 polarization (CD8+ T cells [1]): had no effect on Tc22 polarization

CC[C@H]1/C=C/C=C/C[C@@H](C)[C@H](O)[C@@](C)(O)C(=O)[C@@H](C)[C@H](O)[C@@H](C)C(=O)[C@@H](C)[C@H](O)[C@@H](C)/C=C/C(=O)O[C@@H]2[C@H](C)[C@H](CC1)O[C@]1(CC[C@H](C)[C@H](C[C@@H](C)O)O1)[C@H]2C [oligomycin, Oligomycin]
Tc22 polarization (CD8+ T cells [1]): decrease in Tc22 polarization
Tc1 polarization (CD8+ T cells [1]; Tc1 conditions, oligomycin 100 nm added 24 hours after start of activation): did enhance Tc1 polarization
Tc17 polarization (CD8+ T cells [1]; Tc17 conditions, oligomycin 100 nm added 24 hours after start of activation): did not affect Tc17 polarization

CC(C)(CO)[C@@H](O)C(=O)NCCC(=O)O [pantothenate, Calcium-D Pantothenate]
Tc22 polarization (CD8+ T cells [1]): enhanced polarization
Tc22 polarization, human CD8+ cells (human CD8+ cells): enhanced polarization

CCOC(=O)CCC(=O)OCC [succinate, Diethyl succinate]
IL-22 production (CD8+ T cells [1]; CD8+ T cells activated three days with exogenous succinate (diethyl succinate 14 mM)): enhanced IL-22 production
